Laboratory results as given in patent publication US7985573B2, “Targeted drug-carrying bacteriophages” (priority 2005, dated 2011).

What was measured:
[1] = Solubilization of FITC by hygromycin; format: physicochemical
Source text: For conjugating a hydrophobic cargo, the drug, activated for amine conjugation (in the following experiments, NHS and isothiocynate chemistries were used) was initially reacted in an aqueous solution (NaHCO3 0.1 M pH=8.5) of an aminoglycoside at a concentration lower than the number of available amine groups (to leave one amine available for the subsequent conjugation to the carrier). The reaction was stirred gently for overnight at room temperature. Then the solution was titrated with HCl and Na-citrate buffer was added to final concentration of 0.1 M (pH=5.5). This solution was brought to a final molar concentration of 0.75 M NaCl and finally the carrier bacteriophages was added followed by immediate addition of EDC at concentration of ×100 molar excess over the target carboxyl side chains of the targeted drug carrier. This reaction was stirred gently for 1-2 hours at room temperature, followed by exhaustive dialysis against PBS/0.3 M NaCl. This process is illustrated in FIG. 13.
EDC mediated conjugation of aminoglycosides was first accomplished by using hygromycin as a model linker. hygromycin contains only two primary amines, one for drug conjugation and the other for conjugation to a carrier. Hygromycin was initially conjugated to FITC as described above.

[2] = test system: susceptible bacteria; experiment: Growth inhibition of susceptible bacteria by the chloramphenicol-prodrug; format: cell-based; conditions: concentrations up to ×100 of the free chloramphenicol IC50
[3] = Stability of the CAM-linker adduct without serum (pH, PBS), HPLC; format: physicochemical
Description: To test the CAM release rate, a reverse phase HPLC analysis was done based on the fact that elution time of free CAM is about 9 min while the CAM-linker adduct is eluted about 16 min after sample injection into a reverse phase C18 column. This was done as follows: reverse phase HPLC was used to measure the chloramphenicol release rate following the incubation of chloramphenicol-prodrug in 10% or in 99% horse serum, or without serum, all in PBS. A reverse phase C-18 column was used on a LabChrom L7400 MERCK HITACHI machine with acetonitrile:water (30:70) in the mobile phase at 1 ml/min flow rate. Under these conditions, free chloramphenicol is eluted 9 min after sample loading while the intact chloramphenicol-prodrug is eluted 16 min after sample loading. The % of released chloramphenicol was calculated by dividing the area of the 9 min peak by the total peak area of all relevant peaks and multiplying by 100.

[4] = test system: serum esterases; experiment: Chloramphenicol release from its linker in horse serum, reverse phase HPLC
Description: CAM release rate from its linker in 99% horse serum. (A) Reverse phase HPLC was used to measure the breakdown rate following the incubation for the indicated time periods in 99% horse serum at 37° C. Free chloramphenicol (marked by black arrows) is eluted 9 min after sample loading while intact chloramphenicol-linker adduct (marked by gray arrows) is eluted 16 min after sample loading. (B) release rate of chloramphenicol from its linker in 10% horse serum (gray bars) or without serum (in PBS, black bars) was evaluated by HPLC as in A, the % released chloramphenicol was calculated by dividing the area of the 9 min peak by the total peak area of all relevant peaks.
To test the CAM release rate, a reverse phase HPLC analysis was done based on the fact that elution time of free CAM is about 9 min while the CAM-linker adduct is eluted about 16 min after sample injection into a reverse phase C18 column. This was done as follows: reverse phase HPLC was used to measure the chloramphenicol release rate following the incubation of chloramphenicol-prodrug in 10% or in 99% horse serum, or without serum, all in PBS. […] The % of released chloramphenicol was calculated by dividing the area of the 9 min peak by the total peak area of all relevant peaks and multiplying by 100.

[5] = test system: Staphylococcus aureus; experiment: Growth of Staphylococcus aureus treated with drug-carrying peptide-displaying phages; format: cell-based; conditions: free drug at concentration equivalent to that released by the phages
Source text: FIG. 11. The effect of drug-carrying peptide-displaying phages on the growth of Staphylococcus aureus. (A) Growth curves of SA cells treated with SA-specific chloramphenicol prodrug-conjugated phage A12C (triangles), chloramphenicol prodrug-conjugated irrelevant phage F2b (circles), non conjugated SA-specific phage A12C as negative control (squares). (B) Growth curves of SA cells treated with SA-specific chloramphenicol prodrug-conjugated phage A12C (triangles) or various concentration of free chloramphenicol: 0.533 μg/ml (large filled circles), 1.0625 μg/ml (small open circles), 2.125 μg/ml (large open circles) or cells grown without any growth inhibitor (filled squares). Error bars represent the standard deviation of the data.
Phage A12C was chosen to assess the targeting effect of chloramphenicol-conjugated S. aureus-specific peptide-displaying phages. Conjugates were evaluated for their effect on bacterial growth as follows: an overnight bacterial culture was diluted ×100 in PBS. 1 ml of diluted bacteria was collected by centrifugation at 14,000 RPM and pellet re-suspended in 100 μl PBS. 10 μl of this bacterial suspension was mixed with 100 μl of 10^12 phages in ml PBS, and then incubated for 1 hr. […] Growth was recorded after dilution into the TSB medium by recording the optical density (OD) at 600 nm.

O=C1OC2(c3ccc(O)cc3Oc3cc(O)ccc32)c2ccc(N=C=S)cc21 [FITC]
solubility in aqueous buffer ([1]; FITC stock solution (38.9 mg/ml in DMSO) added to equal volume of buffer without aminoglycosides): immediate formation of precipitate | solubility in aqueous buffer ([1]; conjugated to hygromycin, molar ratio 10 hygromycin:1 FITC): immediate solubilization

O=C(CCCC(=O)ON1C(=O)CCC1=O)OC[C@@H](NC(=O)C(Cl)Cl)[C@H](O)c1ccc([N+](=O)[O-])cc1 [chloramphenicol-prodrug]
inhibition of the growth of susceptible bacteria [2]: did not inhibit the growth | spontaneous hydrolysis rate of the ester bond ([3]; PBS alone, entire 48 h period): less than 5% | stability of CAM-linker adduct ([3]; pH values between 6-8): stable | release rate kinetics ([4]; 10% horse serum, monitored over 48 hours, compared with 99% serum after correcting for concentration): same linear kinetics | CAM released from the linker ([4]; 1 hr incubation in 99% horse serum at 37° C., linear kinetics): about 15%

O=C(N[C@H](CO)[C@H](O)c1ccc([N+](=O)[O-])cc1)C(Cl)Cl [chloramphenicol]
growth of the SA bacteria (OD 600 nm) [5]: did not retard
